# Test results taken from ChEMBL document CHEMBL2321716, “Exploring a new frontier in cancer treatment: targeting the ubiquitin and ubiquitin-like activating enzymes” (J Med Chem, 2013).
# How the values were obtained:
# [1] = biological target: T1, Ubiquitin-like modifier-activating enzyme 7 (Homo sapiens, UniProt P41226); test: Inhibition of UBA7 (unknown origin) in presence of ATP
# T1 sequence (P41226 whole entry): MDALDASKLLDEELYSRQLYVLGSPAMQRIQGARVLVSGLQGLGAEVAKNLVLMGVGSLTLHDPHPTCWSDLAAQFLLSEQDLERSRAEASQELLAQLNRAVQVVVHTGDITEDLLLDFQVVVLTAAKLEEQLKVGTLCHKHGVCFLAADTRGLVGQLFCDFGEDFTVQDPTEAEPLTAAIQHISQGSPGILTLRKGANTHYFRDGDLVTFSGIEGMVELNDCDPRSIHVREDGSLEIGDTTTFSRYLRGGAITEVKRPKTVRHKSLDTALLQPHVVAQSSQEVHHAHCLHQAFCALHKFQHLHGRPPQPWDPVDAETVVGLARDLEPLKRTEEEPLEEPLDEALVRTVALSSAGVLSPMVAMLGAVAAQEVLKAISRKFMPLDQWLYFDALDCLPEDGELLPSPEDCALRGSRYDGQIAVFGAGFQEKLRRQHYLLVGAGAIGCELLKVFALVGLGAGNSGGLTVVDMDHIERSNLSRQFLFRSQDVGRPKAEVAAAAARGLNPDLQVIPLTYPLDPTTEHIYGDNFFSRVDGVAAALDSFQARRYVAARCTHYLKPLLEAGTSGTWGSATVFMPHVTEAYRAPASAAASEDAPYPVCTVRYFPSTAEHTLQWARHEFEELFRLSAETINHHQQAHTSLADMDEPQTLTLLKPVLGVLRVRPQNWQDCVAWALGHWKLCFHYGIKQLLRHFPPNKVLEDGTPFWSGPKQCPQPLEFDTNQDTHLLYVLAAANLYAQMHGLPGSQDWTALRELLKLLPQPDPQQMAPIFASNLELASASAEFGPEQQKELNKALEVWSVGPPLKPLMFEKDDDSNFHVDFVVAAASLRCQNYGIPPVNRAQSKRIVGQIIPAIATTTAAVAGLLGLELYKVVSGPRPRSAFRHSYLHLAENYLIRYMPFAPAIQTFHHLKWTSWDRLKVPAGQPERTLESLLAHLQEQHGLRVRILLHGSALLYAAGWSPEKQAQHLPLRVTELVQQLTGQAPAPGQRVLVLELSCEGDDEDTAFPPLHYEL
# [2] = biological target: T2, Ubiquitin-like modifier-activating enzyme ATG7 (Homo sapiens, UniProt O95352); test: Inhibition of ATG7 (unknown origin) in presence of ATP
# T2 sequence (O95352 whole entry): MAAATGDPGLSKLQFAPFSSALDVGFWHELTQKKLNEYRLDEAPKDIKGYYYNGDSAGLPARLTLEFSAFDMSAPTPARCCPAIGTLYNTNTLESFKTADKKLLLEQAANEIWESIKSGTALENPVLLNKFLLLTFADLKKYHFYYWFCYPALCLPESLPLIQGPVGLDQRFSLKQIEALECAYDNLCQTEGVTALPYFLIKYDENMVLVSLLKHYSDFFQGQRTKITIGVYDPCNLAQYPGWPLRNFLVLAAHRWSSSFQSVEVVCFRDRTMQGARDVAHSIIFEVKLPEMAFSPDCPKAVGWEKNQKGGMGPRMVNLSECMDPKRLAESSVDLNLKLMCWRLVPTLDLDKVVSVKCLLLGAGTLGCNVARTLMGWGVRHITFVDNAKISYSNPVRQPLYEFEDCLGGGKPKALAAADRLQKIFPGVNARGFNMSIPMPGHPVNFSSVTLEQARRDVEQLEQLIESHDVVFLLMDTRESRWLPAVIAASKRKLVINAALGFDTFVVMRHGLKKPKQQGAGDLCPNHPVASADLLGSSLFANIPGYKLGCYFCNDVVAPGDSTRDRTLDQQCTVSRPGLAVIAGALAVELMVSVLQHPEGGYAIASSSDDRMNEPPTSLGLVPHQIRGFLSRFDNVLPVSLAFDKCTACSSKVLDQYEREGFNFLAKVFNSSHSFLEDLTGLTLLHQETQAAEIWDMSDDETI
# [3] = biological target: T3, Ubiquitin-like modifier-activating enzyme 6 (Homo sapiens, UniProt A0AVT1); test: Inhibition of UBA6 (unknown origin) in presence of ATP
# T3 sequence (A0AVT1 whole entry): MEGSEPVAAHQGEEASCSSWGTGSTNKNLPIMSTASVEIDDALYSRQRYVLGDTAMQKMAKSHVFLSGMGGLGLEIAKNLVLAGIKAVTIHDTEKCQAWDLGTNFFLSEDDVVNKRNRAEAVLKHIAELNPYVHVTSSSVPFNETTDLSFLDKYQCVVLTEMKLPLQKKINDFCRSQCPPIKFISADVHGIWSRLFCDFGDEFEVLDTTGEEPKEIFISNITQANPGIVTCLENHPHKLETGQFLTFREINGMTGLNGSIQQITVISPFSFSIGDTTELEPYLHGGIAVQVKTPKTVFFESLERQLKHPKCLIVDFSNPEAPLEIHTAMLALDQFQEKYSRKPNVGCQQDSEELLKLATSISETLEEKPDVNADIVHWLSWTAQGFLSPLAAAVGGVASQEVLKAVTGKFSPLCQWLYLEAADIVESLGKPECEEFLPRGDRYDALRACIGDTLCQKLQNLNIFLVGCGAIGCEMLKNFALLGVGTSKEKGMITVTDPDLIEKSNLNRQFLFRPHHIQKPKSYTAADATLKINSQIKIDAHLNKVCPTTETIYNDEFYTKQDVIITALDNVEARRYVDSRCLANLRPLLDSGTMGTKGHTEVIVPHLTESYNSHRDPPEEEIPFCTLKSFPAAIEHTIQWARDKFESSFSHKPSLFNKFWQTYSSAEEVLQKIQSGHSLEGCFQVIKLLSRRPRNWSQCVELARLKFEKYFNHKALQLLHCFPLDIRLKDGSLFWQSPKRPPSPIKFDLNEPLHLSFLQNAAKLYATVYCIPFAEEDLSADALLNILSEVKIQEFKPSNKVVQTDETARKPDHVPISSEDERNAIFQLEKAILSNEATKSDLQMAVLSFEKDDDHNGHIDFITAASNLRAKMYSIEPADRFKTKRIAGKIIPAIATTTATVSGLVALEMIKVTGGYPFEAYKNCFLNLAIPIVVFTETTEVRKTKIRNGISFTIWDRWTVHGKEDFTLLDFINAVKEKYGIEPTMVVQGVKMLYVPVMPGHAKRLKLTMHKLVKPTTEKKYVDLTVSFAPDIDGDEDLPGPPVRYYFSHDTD
# [4] = biological target: T4, SUMO-activating enzyme subunit 1 (Homo sapiens, UniProt Q9UBE0); test: Inhibition of SAE (unknown origin) in presence of ATP
# T4 sequence (Q9UBE0 whole entry): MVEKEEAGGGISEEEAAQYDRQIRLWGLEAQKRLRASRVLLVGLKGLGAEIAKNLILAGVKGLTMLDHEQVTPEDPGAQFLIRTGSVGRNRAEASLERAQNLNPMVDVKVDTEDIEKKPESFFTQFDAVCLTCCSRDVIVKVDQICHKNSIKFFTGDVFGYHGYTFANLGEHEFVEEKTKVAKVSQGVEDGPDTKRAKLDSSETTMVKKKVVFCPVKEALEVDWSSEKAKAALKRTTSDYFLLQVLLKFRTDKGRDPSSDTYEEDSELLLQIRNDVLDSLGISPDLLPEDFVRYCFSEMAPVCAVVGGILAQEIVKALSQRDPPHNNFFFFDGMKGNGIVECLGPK
# [5] = Inhibition of UAE (unknown origin) in presence of ATP; parameters: species or system Homo sapiens
# [6] = Inhibition of human UAE-catalyzed E1-E2 transthiolation reaction expressed in Sf9 insect cells after 90 mins by TR-FRET assay
# [7] = Competitive inhibition of human UAE-catalyzed ATP-PPi exchange reaction expressed in Sf9 insect cells after 60 mins in presence of 10 uM ATP
# [8] = Competitive inhibition of human UAE-catalyzed ATP-PPi exchange reaction expressed in Sf9 insect cells after 60 mins in presence of 1 mM ATP
# [9] = biological target: T5, NEDD8-activating enzyme E1 regulatory subunit (Homo sapiens, UniProt Q13564); test: Inhibition of NAE (unknown origin) assessed as decrease in NEDD8-Ubcl2 formation
# T5 sequence (Q13564 whole entry): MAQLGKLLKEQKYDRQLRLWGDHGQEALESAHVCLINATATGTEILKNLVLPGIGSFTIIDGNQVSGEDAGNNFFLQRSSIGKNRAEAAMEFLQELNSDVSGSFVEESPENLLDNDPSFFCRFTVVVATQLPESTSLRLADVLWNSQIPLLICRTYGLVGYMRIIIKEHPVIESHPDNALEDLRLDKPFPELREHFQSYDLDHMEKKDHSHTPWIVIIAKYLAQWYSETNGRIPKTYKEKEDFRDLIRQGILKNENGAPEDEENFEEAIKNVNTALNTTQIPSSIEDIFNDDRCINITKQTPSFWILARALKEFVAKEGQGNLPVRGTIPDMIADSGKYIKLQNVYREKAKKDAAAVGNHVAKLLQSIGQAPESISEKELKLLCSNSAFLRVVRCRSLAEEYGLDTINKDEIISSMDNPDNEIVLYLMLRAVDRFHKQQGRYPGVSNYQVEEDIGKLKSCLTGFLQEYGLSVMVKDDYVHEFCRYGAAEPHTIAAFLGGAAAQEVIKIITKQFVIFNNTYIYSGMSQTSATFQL
# [10] = biological target: T6, NEDD8-activating enzyme E1 catalytic subunit (Homo sapiens, UniProt Q8TBC4); test: Inhibition of NAE (unknown origin)-catalyzed transthiolation of NEDD8 from NAE to Ubc12
# T6 sequence (Q8TBC4 whole entry): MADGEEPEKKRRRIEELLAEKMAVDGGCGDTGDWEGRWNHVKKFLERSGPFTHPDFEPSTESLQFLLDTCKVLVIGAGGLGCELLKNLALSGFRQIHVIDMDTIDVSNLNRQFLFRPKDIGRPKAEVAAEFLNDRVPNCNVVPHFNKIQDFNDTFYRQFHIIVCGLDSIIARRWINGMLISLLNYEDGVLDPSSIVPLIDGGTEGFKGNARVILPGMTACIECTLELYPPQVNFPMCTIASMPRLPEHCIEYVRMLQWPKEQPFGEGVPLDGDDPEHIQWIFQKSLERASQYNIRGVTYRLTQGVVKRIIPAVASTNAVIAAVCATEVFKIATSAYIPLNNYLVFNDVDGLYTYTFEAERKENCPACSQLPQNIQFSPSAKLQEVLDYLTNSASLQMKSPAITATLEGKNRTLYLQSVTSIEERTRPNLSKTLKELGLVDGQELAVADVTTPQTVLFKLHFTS
# Caco-2 = test: Cytotoxicity against human Caco2 cells by MTT assay; type: functional, cell-based
# [11] = biological target: T6, NEDD8-activating enzyme E1 catalytic subunit; test: Inhibition of NAE (unknown origin)-catalyzed NEDD8-Ubcl2 intermediate formation by densitometric analysis
# [12] = Inhibition of recombinant yeast UAE-catalyzed UAE-Ub intermediate formation after 15 mins by densitometric analysis; parameters: species or system Saccharomyces cerevisiae
# MCF7 = test: Cytotoxicity against human MCF7 cells after 48 hrs by WST8 assay; type: functional, cell-based; conditions: MCF7, 48 h
# [13] = biological target: T4, SUMO-activating enzyme subunit 1; test: Inhibition of recombinant SAE1(unknown origin)-mediated SUMOylation of RanGAP1-C2
# [14] = Inhibition of FLAG-tagged human recombinant UAE-catalyzed UAE-Ub thioester intermediate formation immunoblotting analysis
# [15] = biological target: T4, SUMO-activating enzyme subunit 1; test: Inhibition of recombinant His-tagged SAE1(unknown origin)-mediated SUMOylation of RanGAP1-C2 by immunoblotting analysis
# [16] = biological target: T4, SUMO-activating enzyme subunit 1; test: Inhibition of human SAE by fluorescence assay
# [17] = Inhibition of N-terminal GST-tagged human UAE-catalyzed UAE-Ub thioester intermediate formation expressed in HI5 insect cells after 15 mins by SDS-PAGE analysis
smiles,measurement,setting,value
NS(=O)(=O)OC[C@H]1O[C@@H](n2cnc3c(N[C@H]4CCc5ccccc54)ncnc32)[C@H](O)[C@@H]1O,IC50,[1],4 µM
same,IC50,[2],> 100 µM
same,IC50,[3],0.92 µM
same,IC50,[4],6.4 µM
same,IC50,[5],5.2 µM
same,IC50,[6],0.0014 µM
same,IC50,[7],0.0102 µM
same,IC50,[8],5 µM
O=c1cc(-c2ccc(O)cc2)oc2cc(O)c(-c3c(O)cc4oc(-c5ccc(O)cc5)cc(=O)c4c3O)c(O)c12,IC50,[9],5 µM
same,IC50,[10],20 µM
O=C(O)CNC(=O)CNC(=O)COc1ccc2nc3n(c(=O)c2c1)CCC3,IC50,Caco-2,10 µM
same,IC50,[11],0.8 µM
C/C=C/[C@]12C(=O)[C@H]3O[C@H]3[C@H](O)[C@H]1[C@H]1C(=C[C@@H]2C)C(=O)[C@H]2O[C@H]2[C@@H]1O,IC50,[12],9.4 µM
same,IC50,MCF7,5.4 µM
CCCC/C=C/[C@]12C(=O)[C@H]3O[C@H]3[C@H](O)[C@H]1[C@H]1C(=C[C@@H]2CCCC)C(=O)[C@H]2O[C@H]2[C@@H]1O,IC50,[12],3.5 µM
same,IC50,MCF7,1 µM
CCCCCCCC/C=C/[C@]12C(=O)[C@H]3O[C@H]3[C@H](O)[C@H]1[C@H]1C(=C[C@@H]2CCCCCCCC)C(=O)[C@H]2O[C@H]2[C@@H]1O,IC50,[12],90 µM
same,IC50,MCF7,3.6 µM
CCCCCCCCCCCCCCCc1cccc(O)c1C(=O)O [ANACARDIC ACID],IC50,[13],2.2 µM
CCCCCC/C=C\CCCCCCCc1cccc(O)c1C(=O)O [GINGKOLIC ACID],IC50,[13],3 µM
C[C@@H](CC(=O)NC(=O)c1coc(/C=C/CCCCCCCCC(=O)O)cc1=O)C(=O)O [HIMEIC ACID A],IC50,[14],50 µM
C[C@@H]1O[C@@H](O[C@H]2[C@H](O)C[C@H](c3ccc4c(c3O)C(=O)C3=C(C4=O)[C@@]4(O[C@H]5CC[C@H](O)[C@H](C)O5)C(=O)C[C@](C)(O)C[C@@]4(O)C=C3)O[C@@H]2C)CC[C@@H]1O[C@H]1C[C@@H](O)[C@H](O)[C@@H](C)O1 [KERRIAMYCIN B],IC50,[15],11.7 µM
CCCCCCCC(=O)SCC/C=C/[C@@H]1CC(=O)NCc2nc(cs2)C2=N[C@@](C)(CS2)C(=O)N[C@@H](C(C)C)C(=O)O1 [LARGAZOLE],IC50,[16],450 µM
same,IC50,[17],29 µM
